Measured values taken from ChEMBL document CHEMBL1201862, “PubChem BioAssay data set” (2004).
Activity calls are given as the source filed them.

Columns and labels:
[1] = target: FAD-linked sulfhydryl oxidase ALR (Homo sapiens, UniProt P55789); assay: inhibitors of human ALR sulfhydryl oxidase, dose response, biochemical, H2O2 detection, luminescence, cherry-pick (AID 493248)
[2] = target: T1, Rac GTPase-activating protein 1 (Homo sapiens, UniProt Q9H0H5); assay: MgcRacGAP GTPase-activating activity inhibitors, confirmation, biochemical, ADP Hunter fluorescence, primary and confirmatory (AID 624330); assay type: functional
T1 sequence (Q9H0H5 whole entry): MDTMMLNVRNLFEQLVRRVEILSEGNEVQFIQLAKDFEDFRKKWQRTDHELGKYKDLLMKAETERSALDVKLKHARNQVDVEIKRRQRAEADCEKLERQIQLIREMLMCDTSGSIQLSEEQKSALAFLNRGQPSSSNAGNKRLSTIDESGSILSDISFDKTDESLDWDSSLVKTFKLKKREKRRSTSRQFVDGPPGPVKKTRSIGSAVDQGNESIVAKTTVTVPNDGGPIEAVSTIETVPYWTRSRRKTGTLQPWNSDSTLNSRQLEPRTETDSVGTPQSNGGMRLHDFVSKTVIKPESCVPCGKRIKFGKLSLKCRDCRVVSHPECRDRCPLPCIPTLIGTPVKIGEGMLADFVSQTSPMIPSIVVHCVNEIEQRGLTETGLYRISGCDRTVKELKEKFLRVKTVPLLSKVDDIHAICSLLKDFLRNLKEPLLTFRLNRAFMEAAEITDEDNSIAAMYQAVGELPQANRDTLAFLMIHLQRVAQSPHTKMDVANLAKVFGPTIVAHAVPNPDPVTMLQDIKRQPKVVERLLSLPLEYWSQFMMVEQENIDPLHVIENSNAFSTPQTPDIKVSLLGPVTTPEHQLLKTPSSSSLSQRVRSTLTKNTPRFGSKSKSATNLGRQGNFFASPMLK

[3] = target: T2, Cytochrome P450 1A2 (Homo sapiens, UniProt P05177);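 further: PubChem cytochrome P450 panel assay, CYP1A2 panel member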
T2 sequence (P05177 whole entry): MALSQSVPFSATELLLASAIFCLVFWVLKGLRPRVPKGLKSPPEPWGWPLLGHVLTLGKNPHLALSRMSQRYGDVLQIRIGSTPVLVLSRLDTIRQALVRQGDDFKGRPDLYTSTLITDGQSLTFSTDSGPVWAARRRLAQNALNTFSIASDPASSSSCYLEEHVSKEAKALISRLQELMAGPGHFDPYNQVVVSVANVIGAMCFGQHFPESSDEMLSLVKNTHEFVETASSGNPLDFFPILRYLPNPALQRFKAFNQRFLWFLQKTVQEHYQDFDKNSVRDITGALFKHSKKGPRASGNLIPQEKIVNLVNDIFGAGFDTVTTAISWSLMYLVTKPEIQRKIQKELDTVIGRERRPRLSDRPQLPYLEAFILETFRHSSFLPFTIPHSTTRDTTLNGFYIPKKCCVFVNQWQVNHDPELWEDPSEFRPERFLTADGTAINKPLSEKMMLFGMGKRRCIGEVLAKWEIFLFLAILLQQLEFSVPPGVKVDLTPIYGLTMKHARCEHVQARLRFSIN

[4] = microbe, parasite or virus in culture; assay type: functional; conditions: Mycobacterium tuberculosis
[5] = HepG2 cell cytotoxicity, dose response, cytotoxicity control for Shn3 inhibitor project, CellTiter-Glo, cherry-picked (AID 624134); assay type: functional, cell-based
[6] = control 3'UTR Renilla luciferase suppression, dose response, counter-screen for Shn3 inhibitor project, cell-based, Clone20-Shn3RL, cherry-picked (AID 624133); assay type: functional
[7] = Shn3 3'UTR reporter inhibitors, dose response, cell-based, Clone20 osteoblasts, firefly luciferase, cherry-picked (AID 624132); assay type: functional;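 further: firefly luciferase luminescence from reporter carrying the Shn3 3'UTR in osteoblasts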
[8] = target: Large T antigen (Simian virus 40, UniProt P03070); assay type: functional, Betapolyomavirus macacae;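 further: Confirmatory-stage PubChem screen for compounds that inhibit SV40 T antigen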
Large T antigen, sequence (P03070 whole entry): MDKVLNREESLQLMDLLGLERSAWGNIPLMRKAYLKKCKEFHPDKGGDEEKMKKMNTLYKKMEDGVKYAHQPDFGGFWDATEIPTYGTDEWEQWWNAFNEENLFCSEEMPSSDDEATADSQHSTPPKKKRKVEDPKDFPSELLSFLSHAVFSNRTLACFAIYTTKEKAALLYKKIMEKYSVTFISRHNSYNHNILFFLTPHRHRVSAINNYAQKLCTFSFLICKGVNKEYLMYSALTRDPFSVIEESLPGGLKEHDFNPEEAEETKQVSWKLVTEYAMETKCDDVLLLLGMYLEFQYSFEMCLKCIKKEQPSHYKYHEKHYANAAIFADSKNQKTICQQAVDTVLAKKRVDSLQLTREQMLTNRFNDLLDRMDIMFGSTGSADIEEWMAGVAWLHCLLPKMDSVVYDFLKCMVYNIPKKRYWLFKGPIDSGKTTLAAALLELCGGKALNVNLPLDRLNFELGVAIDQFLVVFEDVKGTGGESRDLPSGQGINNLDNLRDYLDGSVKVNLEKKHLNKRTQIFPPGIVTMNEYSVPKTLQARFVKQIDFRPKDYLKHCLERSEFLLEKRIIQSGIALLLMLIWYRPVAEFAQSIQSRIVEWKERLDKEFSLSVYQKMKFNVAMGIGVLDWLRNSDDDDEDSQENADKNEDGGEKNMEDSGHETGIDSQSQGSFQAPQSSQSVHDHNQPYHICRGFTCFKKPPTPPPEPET

[9] = C. albicans growth with fluconazole, confirmation, fluorescence, retest (AID 2467); assay type: functional, cell-based
[10] = tested on: Streptococcus; assay: Group A Streptococcus viability loss, dose response, counter-screen for streptokinase expression inhibitor project, luminescence, BacTiterGlo (AID 1915); assay type: functional, organism-based;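 further: potency for reduction of bacterial viability or growth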
[11] = tested on: Streptococcus sp. 'group A'; assay: growth inhibition of control SK(-) GAS strain, dose response, counter-screen for streptokinase expression inhibitor project, luminescence, kanamycin, BacTiterGlo, confirmation (AID 1900); assay type: functional, organism-based
[12] = NIH-3T3 fibroblast cytotoxicity, dose response, cytotoxicity control, cell-based, fluorescence, Alamar Blue, secondary assay (AID 2327); assay type: functional;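 further: NIH-3T3 mouse fibroblasts cultured with fluconazole at 8 µg/mL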
[13] = tested on: H9c2; assay: cells; assay type: functional, cell-based; conditions: Rattus norvegicus, H9c2, Myocardium;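 further: confirmatory concentration-response retest of ultra-high-throughput screening hits for modulation of myocardial damage; cell death induced by hydrogen peroxide oxidative stress; compound pretreatment for 60 min then peroxide exposure for 2 h; potency is for protecting the cells against peroxide damage rather than for killing them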
[14] = cytotoxicity toward NIH3T3 fibroblasts, dose response, counter-screen, cell-based, ATP luminescence, mouse fibroblasts (AID 2010); assay type: functional;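 further: cells exposed to compound for about 90 hours before reading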
[15] = inhibitors of intracellular T. cruzi replication, confirmation, NIH3T3 host cells, beta-gal luminescence (AID 2044); assay type: functional, cell-based;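 further: intracellular parasites grown in NIH/3T3 mouse fibroblasts as host cells; luminescent beta-galactosidase reporter signal from transgenic T. cruzi replicating inside host cells; inhibitors lower the luminescence signal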
[16] = tested on: INS1; assay: beta cell apoptosis inhibitors, cytokine rescue, dose response, luminescence, retest (AID 449756); assay type: functional, cell-based; conditions: Rattus norvegicus;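 further: cell death triggered by IL-1 beta plus TNF-alpha plus IFN-gamma mixture; protective hits raise ATP signal compared with cytokine alone wells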
[17] = Luminescence Cell-Based Dose Retest to Confirm Inhibitors of Cancer Stem Cells. [Related pubchem assays (depositor defined):AID2717, AID2721]; assay type: functional; conditions: Homo sapiens
[18] = Luminescence Cell-Based Dose Confirmation HTS to Identify Activators of 5'UTR Stem-Loop Driven Alpha-Synuclein mRNA Translation in H4 Neuroglioblastoma Cells. [Related pubchem assays: 1829 (Project Summary), 1814 (Primary HTS)]; assay type: functional
[19] = tested on: H4; assay: Luminescence Cell-Based Dose Response HTS to Identify Activators of 5'UTR Stem-Loop Driven Prion Protein mRNA Translation in H4 Neuroglioblastoma Cells. [Related pubchem assays: 1829 (Project Summary), 1814 (Primary HTS)]; assay type: functional; conditions: Homo sapiens
[20] = Luminescence Cell-Based Dose Response HTS to Identify Activators of Luciferase Translation or Activity in H4 […] Cells. [Related pubchem assays: 1829 (Project Summary), 1814 (Primary HTS)]; assay type: functional
[21] = target: Paired box protein Pax-8 (Homo sapiens, UniProt Q06710); assay: inhibitors of PAX8-driven TPO luciferase reporter, dose response, RMG-I cells, cherry-pick (AID 687027); assay type: functional, cell-based;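 further: luciferase reporter driven by Pax8 target thyroperoxidase promoter measured by SteadyGlo luminescence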
Paired box protein Pax-8, sequence (Q06710 whole entry): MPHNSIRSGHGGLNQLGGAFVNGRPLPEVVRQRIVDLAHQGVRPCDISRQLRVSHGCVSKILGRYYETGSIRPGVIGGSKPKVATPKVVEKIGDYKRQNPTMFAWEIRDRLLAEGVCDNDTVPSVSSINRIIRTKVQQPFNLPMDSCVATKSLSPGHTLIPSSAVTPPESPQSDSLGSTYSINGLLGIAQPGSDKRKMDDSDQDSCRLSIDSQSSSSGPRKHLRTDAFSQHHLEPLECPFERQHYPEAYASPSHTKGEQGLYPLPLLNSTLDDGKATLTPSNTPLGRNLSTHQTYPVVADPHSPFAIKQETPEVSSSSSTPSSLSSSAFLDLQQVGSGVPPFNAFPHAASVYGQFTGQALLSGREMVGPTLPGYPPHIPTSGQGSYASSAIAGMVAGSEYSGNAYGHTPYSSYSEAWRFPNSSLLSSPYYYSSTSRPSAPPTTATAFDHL

[22] = cytotoxicity in OVCAR8 ovarian cancer cells, dose response, PAX8 project, cell-based, plate reader, dry powder samples (AID 743197); assay type: functional; conditions: OVCAR-8
[23] = P. falciparum Dd2 growth inhibitors, dose response, SYBR Green, cherry-picked samples (AID 1159567); assay type: functional, cell-based

FAD-linked sulfhydryl oxidase ALR, sequence (P55789 whole entry): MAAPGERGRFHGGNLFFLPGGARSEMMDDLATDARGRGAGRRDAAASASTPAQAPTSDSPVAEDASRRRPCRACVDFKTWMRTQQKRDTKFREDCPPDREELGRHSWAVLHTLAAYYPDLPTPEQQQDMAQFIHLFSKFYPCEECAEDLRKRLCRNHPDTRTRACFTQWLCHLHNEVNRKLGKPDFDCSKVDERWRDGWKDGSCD

Cc1ccc2nc(-c3cccc(S(=O)(=O)N(C)C)c3)cn2c1
AC50 [1]: 0.045 µM (active)

CC(=O)N1CCN(c2ccc(NCc3ccc(Br)o3)cc2)CC1
AC50 [1]: 0.743 µM (active)
IC50 [2]: 13.7 µM (active)

Cc1cc(C(=O)N[C@H](c2ccccc2)[C@@]2(C)C[C@@H]2[C@@H](C)C(=O)Nc2ccc3ccccc3c2)n(C)n1
AC50 [3]: 20 µM (inconclusive)
CC50 [4]: > 40 µM (active)

Cc1nc2ccccn2c1C(=O)NC1CCCc2ccccc21 (configuration not stated)
AC50 [5]: 46.8 µM (active)
AC50 [6]: 4.51 µM (active)
AC50 [7]: 2.47 µM (active)

CCOC(=O)c1cc(C)nc(Sc2ccc(C)cc2)c1C#N
CC50 [4]: > 40 µM (active)

COc1ccc(C(C(O)C(=O)c2c[nH]c3ccccc23)N2CCN(c3ccc(OC)cc3)CC2)cc1 (configuration not stated)
CC50 [4]: > 40 µM (active)

Oc1ccccc1N1CCN(c2nnnn2-c2ccccc2)CC1
AC50 [1]: 7.83 µM (active)

Cc1c(N=C2NC(=O)/C(=C/c3ccc(O)cc3)S2)c(=O)n(-c2ccccc2)n1C
IC50 [8]: 33.1 µM (active)
IC50 [2]: 60.7 µM (active)

Cc1ccc(O)c(C(=O)CC(=O)c2ccccc2Cl)c1
EC50 [9]: 2.52 µM (active)
EC50 [10]: 9.81 µM (active)
EC50 [11]: 4.15 µM (active)
CC50 [4]: 24.4 µM (active)
EC50 [12]: > 160 µM (inactive)

CC1(C)Cc2c(C#N)c(SCc3nc4ccccc4[nH]3)nc(N3CCOCC3)c2CO1
IC50 [13]: 45.5 µM (inactive)

CN(c1ccccc1)S(=O)(=O)c1cccc(NC(=O)c2ccc3ncsc3c2)c1
AC50 [5]: 53.8 µM (active)
AC50 [6]: 13.3 µM (active)
AC50 [7]: 17.2 µM (active)

O=C(NCc1nnc(S)n1-c1ccc(Br)cc1)c1ccc(S(=O)(=O)N2CCCC2)cc1
AC50 [1]: 6.96 µM (active)

N#Cc1c(-c2cccs2)cc(-c2cccnc2)nc1N
IC50 [13]: > 79 µM (inactive)

CC(C)NC(=O)C1CCN(C(=O)c2cc3sccc3n2Cc2ccc(F)cc2)CC1
AC50 [5]: 36.6 µM (active)
AC50 [6]: 8.2 µM (active)
AC50 [7]: 5.05 µM (active)

O=C(O)CCCCCNc1nc(S)nc2ccccc12
AC50 [1]: 7.38 µM (active)

Nc1c(N(CCC2=CCCCC2)C(=O)c2ccc([N+](=O)[O-])o2)c(=O)[nH]c(=O)n1Cc1ccccc1
EC50 [14]: > 60 µM (not active)
EC50 [15]: 0.345 µM (active)
CC50 [4]: > 40 µM (active)

C=C(C)C(=O)OCC(O)COc1ccc(C(C)(C)c2ccc(OCC(O)COC(=O)C(=C)C)cc2)cc1 (configuration not stated)
AC50 [16]: 15 µM (active)
CC50 [4]: > 40 µM (active)

O=[N+]([O-])c1c(O)nc(/C=C\c2cccc(Cl)c2)nc1O
AC50 [1]: 0.737 µM (active)

CCOC(=O)c1ccc(NC(=O)c2[nH]cnc2C(=O)NCCNC(=O)c2nc[nH]c2C(=O)Nc2ccc(C(=O)OCC)cc2)cc1
AC50 [17]: 0.65 µM (active)
AC50 [5]: 9.03 µM (active)
AC50 [7]: 5.51 µM (active)

C=C1CC2(CC(c3ccccc3)OC(c3ccccc3)C2)OC1=O (configuration not stated)
AC50 [5]: 38.4 µM (active)
AC50 [6]: 7.45 µM (active)
AC50 [7]: 2.49 µM (active)

O=C(COC(=O)Cc1nnc(O)c2ccccc12)Nc1ccc(Cl)cc1F
IC50 [13]: > 79 µM (inactive)

COc1cc(-c2cc(NC=O)c3ncc(-c4ccc(C(C)=O)cc4)n3c2)ccc1O
IC50 [13]: > 79 µM (inactive)

COc1ccc(-c2cc(NC=O)c3ncc(-c4cccc(C(C)=O)c4)n3c2)cc1
IC50 [13]: > 79 µM (inactive)

COc1cccc(-c2cnc3c(NC(C)=O)cc(-c4cccc(NS(C)(=O)=O)c4)cn23)c1
IC50 [13]: > 79 µM (inactive)

COc1ccc(-c2ccc3[nH]c4c(c3c2)CCN2C[C@H]3[C@H](C)ON(C)[C@H]3C[C@@H]42)cc1
IC50 [13]: > 79 µM (inactive)

C/C(=N\Nc1nnc2c3ccccc3n(C)c2n1)c1ccc(C)o1
IC50 [13]: > 79 µM (inactive)
EC50 [18]: 17.5 µM (active)
EC50 [19]: > 120 µM (not active)
EC50 [20]: 71.3 µM (active)

C=C1CC(C(=O)N/N=C/c2ccc(O)cc2)C1
IC50 [8]: 9.17 µM (active)
IC50 [2]: 42.6 µM (active)

C[C@@H]1CCCCO[C@@H](CN(C)Cc2ccccc2)[C@@H](C)CN([C@@H](C)CO)C(=O)c2cc(NS(=O)(=O)c3ccc(Cl)cc3)ccc2O1
AC50 [21]: 5.43 µM (active)
AC50 [22]: 63.2 µM (active)

O=C(C[C@H]1C[C@@H]2c3cc(NC(=O)Nc4ccc(C(F)(F)F)cc4)ccc3O[C@@H]2[C@@H](CO)O1)NCCc1ccccc1
AC50 [21]: 2.07 µM (active)
AC50 [22]: 60.1 µM (active)

C[C@H](CO)N1C[C@H](C)[C@H](CN(C)C(=O)c2ccccc2)OCCCC[C@H](C)Oc2ccc(NC(=O)Nc3ccc(C(F)(F)F)cc3)cc2C1=O
AC50 [21]: 5.26 µM (active)
AC50 [22]: > 70 µM (inactive)

COc1cc(CN2CC3(CN(C(=O)CN4CCOCC4)C3)c3c(n(C)c4cc(OC)ccc34)[C@@H]2CO)cc(OC)c1
AC50 [23]: 6.16 µM (active)

O=C(c1ccc(F)cc1)N1CC(=O)N2[C@H](CO)[C@@H](c3ccc(/C=C/c4ccccc4)cc3)[C@@H]2C1
AC50 [23]: 3.9 µM (active)

C[C@H](CO)N1C[C@H](C)[C@H](CN(C)C(=O)Nc2ccc(F)cc2)Oc2cc(/C=C/c3ccccc3)ccc2S1(=O)=O
AC50 [23]: 5.46 µM (active)

O=C(C1CC1)N1CC(=O)N2[C@H](CO)[C@@H](c3ccc(C#CCc4ccccc4)cc3)[C@@H]2C1
AC50 [23]: 5.44 µM (active)

COc1ccc2c3c(n(C)c2c1)[C@H](CO)N(C(=O)Nc1ccc(F)cc1)CC31CCN(C(=O)c2cccnc2)CC1
AC50 [23]: 4.52 µM (active)
